# Experimental data: patent publication US7276527B2, “5-pyridyl-1,3-azole compounds, process for producing the same and use thereof” (Takeda Pharmaceutical Company Limited, priority 1999, dated 2007)
row,melting point [°C],SMILES
1,84 to 86,"Cc1cccc(-c2nc(-c3ccccc3Cl)sc2-c2ccnc(NCc3ccccc3)c2)c1 [Example Compound 19-14, N-benzyl-N-[4-[2-(2-chlorophenyl)-4-(3-methylphenyl)-1,3-thiazol-5-yl]-2-pyridyl]amine]"
2,113 to 114,"Cc1cccc(-c2nc(-c3ccccc3Cl)sc2-c2ccnc(NCCc3ccccc3)c2)c1 [Example Compound 19-15, N-[4-[2-(2-chlorophenyl)-4-(3-methylphenyl)-1,3-thiazol-5-yl]-2-pyridyl]-N-(2-phenylethyl)amine]"
3,101 to 102,"Cc1cccc(-c2nc(-c3ccccc3Cl)sc2-c2ccnc(NCCCc3ccccc3)c2)c1 [Example Compound 19-16, N-[4-[2-(2-chlorophenyl)-4-(3-methylphenyl)-1,3-thiazol-5-yl]-2-pyridyl]-N-(3-phenylpropyl)amine]"
4,134 to 136,"CSc1ccc(-c2nc(-c3cccc(C)c3)c(-c3ccnc(NCc4ccccc4)c3)s2)cc1 [Example Compound 19-17, N-benzyl-N-[4-[4-(3-methylphenyl)-2-(4-methylthiophenyl)-1,3-thiazol-5-yl]-2-pyridyl]amine]"
5,137 to 139,"CSc1ccc(-c2nc(-c3cccc(C)c3)c(-c3ccnc(NCCc4ccccc4)c3)s2)cc1 [Example Compound 19-18, N-[4-[4-(3-methylphenyl)-2-(4-methylthiophenyl)-1,3-thiazol-5-yl]-2-pyridyl]-N-(2-phenylethyl)amine]"
6,106 to 107,"CSc1ccc(-c2nc(-c3cccc(C)c3)c(-c3ccnc(NCCCc4ccccc4)c3)s2)cc1 [Example Compound 19-19, N-[4-[4-(3-methylphenyl)-2-(4-methylthiophenyl)-1,3-thiazol-5-yl]-2-pyridyl]-N-(3-phenylpropyl)amine]"
7,144 to 145,"CSc1ccc(-c2nc(-c3cccc(C)c3)c(-c3ccnc(NCc4ccc5ccccc5c4)c3)s2)cc1 [Example Compound 19-20, N-[4-[4-(3-methylphenyl)-2-(4-methylthiophenyl)-1,3-thiazol-5-yl]-2-pyridyl]-N-(2-naphthylmethyl)amine]"
8,236 to 237,"Cc1cccc(-c2nc(-c3ccc(S(C)(=O)=O)cc3)sc2-c2ccnc(NC(=O)CCc3ccccc3)c2)c1 [Example Compound 21-2, N-[4-[4-(3-methylphenyl)-2-(4-methylsulfonylphenyl)-1,3-thiazol-5-yl]-2-pyridyl]-3-phenylpropionamide]"
9,199 to 201,"Cc1cccc(-c2nc(-c3ccc(S(C)(=O)=O)cc3)sc2-c2ccnc(NC(=O)c3cccs3)c2)c1 [Example Compound 21-3, N-[4-[4-(3-methylphenyl)-2-(4-methylsulfonylphenyl)-1,3-thiazol-5-yl]-2-pyridyl]-2-thiophenecarboxamide]"
10,231 to 233,"Cc1cccc(-c2nc(-c3ccc(S(C)(=O)=O)cc3)sc2-c2ccnc(NC(=O)c3ccc4ccccc4c3)c2)c1 [Example Compound 21-4, N-[4-[4-(3-methylphenyl)-2-(4-methylsulfonylphenyl)-1,3-thiazol-5-yl]-2-pyridyl]-2-naphthamide]"
11,167 to 168,"Cc1cccc(-c2nc(-c3ccc(S(C)(=O)=O)cc3)sc2-c2ccnc(NCCCc3ccccc3)c2)c1 [Example Compound 21-6, N-[4-[4-(3-methylphenyl)-2-(4-methylsulfonylphenyl)-1,3-thiazol-5-yl]-2-pyridyl]-N-(3-phenylpropyl) amine]"
12,167 to 168,"Cc1cccc(-c2nc(-c3ccc(S(C)(=O)=O)cc3)sc2-c2ccnc(NCc3ccc4ccccc4c3)c2)c1 [Example Compound 21-7, N-[4-[4-(3-methylphenyl)-2-(4-methylsulfonylphenyl)-1,3-thiazol-5-yl]-2-pyridyl]-N-(2-naphthylmethyl)amine]"
13,183 to 184,"COc1ccc(CNc2cc(-c3sc(N)nc3-c3cccc(C)c3)ccn2)cc1 [Example Compound 23-1, N-[4-[2-amino-4-(3-methylphenyl)-1,3-thiazol-5-yl]-2-pyridyl]-N-(4-methoxybenzyl)amine]"
